# Legend:
# Assay type in all cases: cell-based
# [1] = test system: interaction between SnRK1A and SKINs; test: Rice embryo GAL4-UAS two-hybrid assay (luciferase); conditions: rice embryos, −S medium containing 1 μM ABA
# Method: FIG. 2. The N-terminus of SKIN interacts with the kinase domain of SnRK1A. For the GAL4-UAS two-hybrid assay, rice embryos were co-transfected with effector and reporter plasmids, incubated in −S medium for 24 h, and assayed for luciferase activity. The luciferase activity in rice embryos bombarded with effectors Ubi:GAD, Ubi:GBD and reporter 5XUAS-35S mp:Luc was set to 1×, and other values were calculated relative to this value. Error bars indicate the SE for three replicate experiments. Significance levels: * p<0.1, ** p<0.05. The Y axis indicates the relative luciferase activity with different constructs. (A) Plasmid constructs. (B) Rice embryos were co-transfected with effectors Ubi:GAD-SnRK1A and Ubi:GBD-SKIN (wild type or truncated) and reporter 5XUAS-35S mp:Luc. (C) Rice embryos were co-transfected with effectors Ubi:GAD-SnRK1A [wild type, kinase domain (KD) or regulatory (RD)], Ubi:GBD-SKIN and reporter 5XUAS-35S mp:Luc. (D) Rice embryos were co-transfected with effectors Ubi:GAD-SnRK1A and Ubi:GBD-SKIN and reporter 5XUAS-35S mp:Luc, and incubated in −S medium containing 1 μM ABA.
# Rice embryos were prepared for particle bombardment as described (Chen et al., 2006). The rice embryos were bombarded with reporter, effectors and internal control at a ratio of 4:2:1 for single effector or 4:2:2:1 for two effectors. […]
# SnRK1A-GFP = test: Cellular localization of SnRK1A-GFP in transfected barley aleurones (confocal microscopy); conditions: 48 h; for % of total cells with SnRK1A-GFP in location [drawing 1] (nucleus) / % of total cells with SnRK1A-GFP in location [drawing 2] (cytoplasm) / Number of cells with SnRK1A-GFP in location [drawing 1] (nucleus) / Number of cells with SnRK1A-GFP in location [drawing 2] (cytoplasm): +ABA
# Method: (§1) FIG. 10. ABA restricts SKINs, SnRK1A and MYBS1 in the cytoplasm under sugar starvation. Barley aleurones were co-transfected with indicated plasmid constructs and incubated in +S or −S medium with ABA (+ABA) or without ABA (−ABA) for 48 h. Thirty optical sections of 0.9-1.1 μm thickness were prepared for each cell and only five regularly spaced sections (sections 3, 9, 15, 21 and 27) are shown here. C and N indicate higher GFP signals, and c and n indicate lower GFP signals in the cytoplasm and nucleus, respectively. For more section images of each cell, see also FIG. 22 online. (A) Barley aleurones were transfected with Ubi:SKIN1-GFP, Ubi:SKIN2-GFP, Ubi:SnRK1A-GFP or Ubi:MYBS1-GFP alone. (B) Barley aleurones were transfected with Ubi.MYBS1-GFP alone (panel 1) or co-transfected with Ubi.MYBS1-GFP and Ubi:SnRK1A (panel 2), or with Ubi.MYBS1-GFP and Ubi:SnRK1A(Ri) (panel 3). (C) Barley aleurones were co-transfected with Ubi:SnRK1A-GFP and Ubi:SKIN(Ri). (D) Wild type rice (WT) or transgenic rice overexpression Ubi:SKIN(Ri) were transfected with Ubi:SnRK1A-GFP (panels 1-3) or Ubi.MYBS1-GFP (panels 4-6).
# Detection of cellular localization of SKIN-GFP, SnRK1A-GFP and MYBS1-GFP fusion proteins were performed as described (Hong et al., 2012). Embryoless barley and rice seeds were sterilized with 1% NaOCl for 30 mins, and incubated in a buffer containing 20 mM CaCl2 and 20 mM sodium succinate, pH 5.0, for 4 days. Aleurone layers were isolated by scratching away starch in the endosperm with a razor blade. Four aleurone layers were arranged in a 10-cm dish for bombardment. Aleurone layers expressing GFP were examined with a Ziess confocal microscope (LSM510META) using a 488-nm laser line for excitation and a 515- to 560-nm long pass filter for emission.
# SKIN-GFP = test: Cellular localization of SKIN-GFP in transfected barley aleurones (confocal microscopy); conditions: −S medium containing ABA, 48 h
# Method: as §1
# Detection of cellular localization of SKIN-GFP, SnRK1A-GFP and MYBS1-GFP fusion proteins were performed as described (Hong et al., 2012). […]
smiles,measurement,setting,value
"CC1=CC(=O)CC(C)(C)[C@@]1(O)/C=C/C(C)=C\C(=O)O [ABA, abscisic acid]",Effect on the interaction between SnRK1A and SKINs,[1],enhanced
same,% of total cells with SnRK1A-GFP in location [drawing 1] (nucleus),SnRK1A-GFP; +S medium,15.8%
same,% of total cells with SnRK1A-GFP in location [drawing 2] (cytoplasm),SnRK1A-GFP; +S medium,84.2%
same,Number of cells with SnRK1A-GFP in location [drawing 1] (nucleus),SnRK1A-GFP; +S medium,6
same,Number of cells with SnRK1A-GFP in location [drawing 2] (cytoplasm),SnRK1A-GFP; +S medium,32
same,Localization of SnRK1A-GFP,SnRK1A-GFP; −S medium containing ABA,exclusively localized in the cytoplasm
same,% of total cells with SnRK1A-GFP in location [drawing 1] (nucleus),SnRK1A-GFP; −S medium,8.0%
same,% of total cells with SnRK1A-GFP in location [drawing 2] (cytoplasm),SnRK1A-GFP; −S medium,92.0%
same,Number of cells with SnRK1A-GFP in location [drawing 1] (nucleus),SnRK1A-GFP; −S medium,7
same,Number of cells with SnRK1A-GFP in location [drawing 2] (cytoplasm),SnRK1A-GFP; −S medium,81
same,Localization of SKIN-GFP,SKIN-GFP,exclusively localized in the cytoplasm
